Laboratory results: patent publication US20090005250A1, “Substituted 2,4-diamino-1,3,5-triazines, processes for their use as herbicides and crop growth regulators” (Bayer CropScience AG, priority 2006, published 2009)

Key:
[1] = system: harmful plants such as Stellaria media, Lolium multiflorum, Amaranthus retroflexus, Sinapis alba, Avena sativa and Setaria viridis; experiment: Pre-emergence herbicidal action (greenhouse pot test); type: in vivo, mono- and dicotyledonous weed plants; conditions: application rate of 500 g or less of active substance per hectare; scored visually after 3 to 4 weeks in comparison to untreated controls
Description: Seeds or rhizome pieces of mono- and dicotyledonous weed plants were placed in sandy loam in plastic pots and covered with soil. The inventive compounds, which have been formulated in the form of wettable powders or emulsion concentrates, were then applied to the surface of the covering soil as an aqueous suspension or emulsion in different dosages with an application rate of from 600 to 800 l/ha of water (converted). After the treatment, the pots were placed in a greenhouse and kept under good growth conditions for the weeds. The plant or emergence damage is scored visually after the emergence of the test plants after an experiment time of from 3 to 4 weeks in comparison to untreated controls. […] For example, the examples no.

[2] = system: harmful plants such as Sinapis alba, Echinochloa crus-galli, Lolium multiflorum, Stellaria media, Cyperus iria, Amaranthus retroflexus, Setaria viridis, Avena …; experiment: Post-emergence herbicidal action (greenhouse pot test); type: in vivo, mono- and dicotyledonous weeds; conditions: application rate of 500 g and less of active substance per hectare; treated at three-leaf stage; scored visually after approx. 3 to 4 weeks
Protocol: Seeds or rhizome pieces of mono- and dicotyledonous weeds were placed in sandy loam in plastic pots, covered with soil and grown in a greenhouse under good growth conditions. Three weeks after the sowing, the test plants were treated at the three-leaf stage. The inventive compounds formulated as spray powders or as emulsion concentrates were sprayed onto the green plant parts in various dosages with an application rate of from 600 to 800 l/ha of water (converted). After the test plants had been left to stand in the greenhouse under optimal growth conditions for approx. 3 to 4 weeks, the action of the preparations was scored visually in comparison to untreated controls. The inventive compositions also had good post-emergence herbicidal activity against a wide spectrum of economically important gramineous and broadleaf weeds. For example, examples no.

Compound	herbicidal action, pre-emergence method [1]	herbicidal action, post-emergence method [2]
Nc1ncnc(NC(C2CC2)C2CC2)n1 [Example 1-19]	very good herbicidal action	very good herbicidal action
Cc1nc(N)nc(NC(C2CC2)C2CC2)n1 [Example 1-98]	very good herbicidal action	–
Nc1nc(NC(C2CC2)C2CC2)nc(C2CC2)n1 [Example 1-256]	–	very good herbicidal action
CC(F)c1nc(N)nc(NC(C(C)C)C2CC2)n1 (stereo not shown) [Example 1-317]	very good herbicidal action	very good herbicidal action
CC(F)c1nc(N)nc(NC(C2CC2)C2CC2)n1 (stereo not shown) [Example 1-335]	very good herbicidal action	very good herbicidal action
CCC(F)c1nc(N)nc(NC(C2CC2)C2CC2)n1 (stereo not shown) [Example 1-414]	–	very good herbicidal action
CCC(F)c1nc(N)nc(NC(C2CCC2)C2CCC2)n1 (stereo not shown) [Example 1-420]	very good herbicidal action	very good herbicidal action
CC(C)C(Nc1nc(N)nc(C(C)(C)F)n1)C1CC1 (stereo not shown) [Example 1-475]	very good herbicidal action	very good herbicidal action
CC(C)(F)c1nc(N)nc(NC(C2CC2)C2CC2)n1 [Example 1-493]	very good herbicidal action	very good herbicidal action
CC(C)(F)c1nc(N)nc(NC(C2CCC2)C2CCC2)n1 [Example 1-499]	very good herbicidal action	–
Nc1nc(NC(C2CC2)C2CC2)nc(C2(F)CC2)n1 [Example 1-572]	very good herbicidal action	very good herbicidal action
Nc1nc(NC(C2CC2)C2CC2)nc(C(F)F)n1 [Example 1-651]	very good herbicidal action	very good herbicidal action
CC(=O)Nc1nc(NC(C2CC2)C2CC2)nc(C(C)(C)F)n1 [Example 2-199]	very good herbicidal action	very good herbicidal action
CN(C)C=Nc1nc(NC(C2CC2)C2CC2)nc(C(C)(C)F)n1 [Example 5-201]	very good herbicidal action	very good herbicidal action
CC(C)(F)c1nc(N=CN2CCOCC2)nc(NC(C2CC2)C2CC2)n1 [Example 6-199]	very good herbicidal action	very good herbicidal action
CC(C)(F)c1nc(N)nc(NC2CCC3CC32)n1 (stereo not shown) [Example 7-79]	very good herbicidal action	very good herbicidal action
